{
  "source": "patent US12570662B2",
  "about": "“Substituted pyrrolo[1,2-b]pyridazines as bifunctional degraders of interleukin-1 receptor-associated kinases” (Nurix Therapeutics, Inc., priority 2021, dated 2026)",
  "target": "T1, IRAK4 (Homo sapiens, UniProt Q9NWZ3)",
  "T1 construct": "C-terminal HiBiT-tagged Jurkat cells (polyclonal cell line or clone 8D5); endogenous in cells; host or cells: Jurkat cells (polyclonal cell line or clone 8D5), HiBiT-tagged",
  "T1 sequence (Q9NWZ3 1-460)": "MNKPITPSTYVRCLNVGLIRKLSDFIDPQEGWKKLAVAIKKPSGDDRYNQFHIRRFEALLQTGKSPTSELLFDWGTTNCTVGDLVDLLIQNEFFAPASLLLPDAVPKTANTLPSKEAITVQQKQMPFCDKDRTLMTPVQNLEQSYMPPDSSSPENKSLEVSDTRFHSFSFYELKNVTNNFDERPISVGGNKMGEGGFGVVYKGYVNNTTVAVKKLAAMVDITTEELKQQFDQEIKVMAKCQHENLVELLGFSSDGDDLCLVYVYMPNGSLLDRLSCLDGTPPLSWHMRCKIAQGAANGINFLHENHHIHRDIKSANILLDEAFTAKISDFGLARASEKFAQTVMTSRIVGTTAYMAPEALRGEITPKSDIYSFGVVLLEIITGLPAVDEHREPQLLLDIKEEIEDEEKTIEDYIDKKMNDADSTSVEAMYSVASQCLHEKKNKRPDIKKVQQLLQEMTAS",
  "experiment": "IRAK4 Degradation HiBit Assay",
  "format": "cell-based",
  "settings": "C-terminal HiBiT-tagged Jurkat cells, 4 hrs incubation; for DC50: % IRAK4 remaining, four-parameter fit (IC50 used as DC50); for Dmax: from fit of % IRAK4 remaining, read-out: Dmax",
  "description": "Compound dilution series (11-point, 3.16-fold dilutions in DMSO, columns 1-11 and 12-22) at 500× the final required concentrations were prepared in Labcyte LDV 384-well plates (cat. no. LP-0200) using a Labcyte Echo 550 Liquid Handler. The 500× solutions ranged from 5 mM to 0.5 μM (final assay concentration range 10 μM to 0.1 nM). Using the Echo, the 500× solutions were stamped into white, 384-well assay plates (Corning, cat. no. 3570) at 60 nL/well. The following assay plate controls were also stamped at 60 nL/well: DMSO in wells E23-P23 (NC, Negative Control, maximum signal), 5 mM solution control compound al in wells A23-D23 and M24-P24 (AC, Active Control, minimum signal/background, 10 μM final assay concentration), control compound al dilution series in wells […] (12-point, 4-fold dilutions). C-terminal HiBiT-tagged Jurkat cells (polyclonal cell line or clone 8D5) were plated at 1×10^6 cells/mL, 30 μL/well (3×10^4 cells/well) in complete RPMI (10% FBS, 1% L-glutamine). Cells were incubated for 4 hrs at 32° C./6% CO2. Compound al has the following structure:\nFollowing incubation, 30 μL of complete Nano-Glo HiBiT Lytic Detection Reagent (Nano-Glo HiBiT Lytic Buffer with 1:50 Nano-Glo HiBiT Lytic Substrate and 1:100 LgBiT Protein; Promega cat. no. N3040) was added. Cells were further incubated for 10 min at room temperature (RT). Luminescence units (LU) were read on an EnVision plate reader (Perkin Elmer, 0.1 sec per well). Percent IRAK4 remaining per sample was calculated as follows: […]\nUsing Graphpad Prism, % IRAK4 remaining values were plotted as a function of compound concentration. To determine DC50 and Dmax values, resulting curves were fit to the Prism curve-fitting equation “log (inhibitor) vs response-Variable slope (four parameters)” (reported best fit value IC50 used as DC50). Table 1 summarizes the biological data of Compounds of Examples 1-137 and 142-145 obtained from the assays described herein.",
  "data": [
    {"smiles": "CNc1cc(-c2ccc3cc(C#N)cnn23)ncc1-c1nnc(C2CCC(C(=O)N3CCN(c4ccc([C@@H]5CCC(=O)NC5=O)cc4)CC3)CC2)s1", "note": "(mixture of isomers) [Example 32, 7-[4-(methylamino)-5-{5-[(1rs&,4rs&)-4-(4-{4-[(3RS)-2,6-dioxopiperidin-3-yl]phenyl}piperazine-1-carbonyl)cyclohexyl]-1,3,4-thiadiazol-2-yl}pyridin-2-yl]pyrrolo[1,2-b]pyridazine-3-carbonitrile]", "values": [
      {"measurement": "DC50", "value": 10, "unit": "nM"},
      {"measurement": "Dmax", "value": 54, "unit": "%"}
    ]},
    {"smiles": "N#Cc1cnn2c(-c3cc(NC4CCOCC4)c(-c4nnc(N5CCC6(CCN(CC7CCN(c8ccc(C9CCC(=O)NC9=O)cn8)CC7)CC6)CC5)s4)cn3)ccc2c1", "note": "(racemic) [Example 33, rac-7-[5-(5-{9-[(1-{5-[(3R)-2,6-dioxopiperidin-3-yl]pyridin-2-yl}piperidin-4-yl)methyl]-3,9-diazaspiro[5.5]undecan-3-yl}-1,3,4-thiadiazol-2-yl)-4-[(oxan-4-yl)amino]pyridin-2-yl]pyrrolo[1,2-b]pyridazine-3-carbonitrile]", "values": [
      {"measurement": "DC50", "value": 45, "unit": "nM"},
      {"measurement": "Dmax", "value": 101, "unit": "%"}
    ]},
    {"smiles": "N#Cc1cnn2c(-c3cc(NC4CCOCC4)c(-c4nnc(N5CC6CCC(C5)N6CC5CCN(c6ccc([C@@H]7CCC(=O)NC7=O)cn6)CC5)s4)cn3)ccc2c1", "note": "(racemic) [Example 34, rac-7-[5-(5-{8-[(1-{5-[(3R)-2,6-dioxopiperidin-3-yl]pyridin-2-yl}piperidin-4-yl)methyl]-3,8-diazabicyclo[3.2.1]octan-3-yl}-1,3,4-thiadiazol-2-yl)-4-[(oxan-4-yl)amino]pyridin-2-yl]pyrrolo[1,2-b]pyridazine-3-carbonitrile]", "values": [
      {"measurement": "DC50", "value": 24, "unit": "nM"},
      {"measurement": "Dmax", "value": 97, "unit": "%"}
    ]},
    {"smiles": "CCN(C(=O)C1CCN(c2ccc([C@@H]3CCC(=O)NC3=O)cn2)CC1)[C@H]1CC[C@H](c2nnc(-c3cnc(-c4ccc5cc(C#N)cnn45)cc3NC)s2)CC1", "note": "(racemic) [Example 35, 1-{5-[(3RS)-2,6-dioxopiperidin-3-yl]pyridin-2-yl}-N-ethyl-N-[(1r,4r)-4-[5-(6-{3-cyanopyrrolo[1,2-b]pyridazin-7-yl}-4-(methylamino)pyridin-3-yl)-1,3,4-thiadiazol-2-yl]cyclohexyl]piperidine-4-carboxamide]", "values": [
      {"measurement": "DC50", "value": 27, "unit": "nM"},
      {"measurement": "Dmax", "value": 105, "unit": "%"}
    ]},
    {"smiles": "CCN(CC1CCN(c2ccc([C@@H]3CCC(=O)NC3=O)cn2)CC1)[C@H]1CC[C@H](c2nnc(-c3cnc(-c4ccc5cc(C#N)cnn45)cc3NC)s2)CC1", "note": "(racemic) [Example 36, 7-[4-(methylamino)-5-{5-[(1r,4r)-4-{[(1-{5-[(3RS)-2,6-dioxopiperidin-3-yl]pyridin-2-yl}piperidin-4-yl)methyl](ethyl)amino}cyclohexyl]-1,3,4-thiadiazol-2-yl}pyridin-2-yl]pyrrolo[1,2-b]pyridazine-3-carbonitrile]", "values": [
      {"measurement": "DC50", "value": 20, "unit": "nM"},
      {"measurement": "Dmax", "value": 105, "unit": "%"}
    ]},
    {"smiles": "N#Cc1cnn2c(-c3cc(NC4CCOCC4)c(-c4nnc(N5CCN(C(=O)C6CCN(c7ccc(C8CCC(=O)NC8=O)cn7)CC6)CC5)s4)cn3)ccc2c1", "note": "(racemic) [Example 37, rac-7-(5-{5-[4-(1-{5-[(3R)-2,6-dioxopiperidin-3-yl]pyridin-2-yl}piperidine-4-carbonyl)piperazin-1-yl]-1,3,4-thiadiazol-2-yl}-4-[(oxan-4-yl)amino]pyridin-2-yl)pyrrolo[1,2-b]pyridazine-3-carbonitrile]", "values": [
      {"measurement": "DC50", "value": 13, "unit": "nM"},
      {"measurement": "Dmax", "value": 108, "unit": "%"}
    ]},
    {"smiles": "CNc1cc(-c2ccc3cc(C#N)cnn23)ncc1-c1nnc([C@H]2CC[C@H](CN3CCC(c4ccc([C@@H]5CCC(=O)NC5=O)cn4)CC3)CC2)s1", "note": "(racemic) [Example 38, 7-[4-(methylamino)-5-{5-[(1r,4r)-4-[(4-{5-[(3RS)-2,6-dioxopiperidin-3-yl]pyridin-2-yl}piperidin-1-yl)methyl]cyclohexyl]-1,3,4-thiadiazol-2-yl}pyridin-2-yl]pyrrolo[1,2-b]pyridazine-3-carbonitrile]", "values": [
      {"measurement": "DC50", "value": 12, "unit": "nM"},
      {"measurement": "Dmax", "value": 109, "unit": "%"}
    ]},
    {"smiles": "CNc1cc(-c2ccc3cc(C#N)cnn23)ncc1-c1nnc([C@H]2CC[C@H](C(=O)N3CCN(c4ccc([C@@H]5CCC(=O)NC5=O)cn4)CC3)CC2)s1", "note": "(racemic) [Example 39, 7-[4-(methylamino)-5-{5-[(1r,4r)-4-(4-{5-[(3RS)-2,6-dioxopiperidin-3-yl]pyridin-2-yl}piperazine-1-carbonyl)cyclohexyl]-1,3,4-thiadiazol-2-yl}pyridin-2-yl]pyrrolo[1,2-b]pyridazine-3-carbonitrile]", "values": [
      {"measurement": "DC50", "value": 19, "unit": "nM"},
      {"measurement": "Dmax", "value": 108, "unit": "%"}
    ]},
    {"smiles": "CNc1cc(-c2ccc3cc(C#N)cnn23)ncc1-c1nnc(N2CC3(CCN(C(=O)C4CCN(c5ccc(C6CCC(=O)NC6=O)cn5)CC4)CC3)C2)s1", "note": "(racemic) [Example 40, rac-7-(5-{5-[7-(1-{5-[(3R)-2,6-dioxopiperidin-3-yl]pyridin-2-yl}piperidine-4-carbonyl)-2,7-diazaspiro[3.5]nonan-2-yl]-1,3,4-thiadiazol-2-yl}-4-(methylamino)pyridin-2-yl)pyrrolo[1,2-b]pyridazine-3-carbonitrile]", "values": [
      {"measurement": "DC50", "value": 19, "unit": "nM"},
      {"measurement": "Dmax", "value": 114, "unit": "%"}
    ]},
    {"smiles": "N#Cc1cnn2c(-c3cc(NC4CCOCC4)c(-c4nnc(N5CCN(CC6CCN(c7ccc(C8CCC(=O)NC8=O)cn7)CC6)CC5)s4)cn3)ccc2c1", "note": "(racemic) [Example 43, 7-(5-{5-[4-({1-[5-(2,6-dioxopiperidin-3-yl)pyridin-2-yl]piperidin-4-yl}methyl)piperazin-1-yl]-1,3,4-thiadiazol-2-yl}-4-(oxan-4-ylamino)pyridin-2-yl)pyrrolo[1,2-b]pyridazine-3-carbonitrile]", "values": [
      {"measurement": "DC50", "value": 14, "unit": "nM"},
      {"measurement": "Dmax", "value": 111, "unit": "%"}
    ]},
    {"smiles": "CNc1cc(-c2ccc3cc(C#N)cnn23)ncc1-c1nnc([C@H]2CC[C@H](CN3CCN(c4ccc([C@@H]5CCC(=O)NC5=O)cn4)CC3)CC2)s1", "note": "(racemic) [Example 44, 7-[4-(methylamino)-5-{5-[(1r,4r)-4-[(4-{5-[(3RS)-2,6-dioxopiperidin-3-yl]pyridin-2-yl}piperazin-1-yl)methyl]cyclohexyl]-1,3,4-thiadiazol-2-yl}pyridin-2-yl]pyrrolo[1,2-b]pyridazine-3-carbonitrile]", "values": [
      {"measurement": "DC50", "value": 12, "unit": "nM"},
      {"measurement": "Dmax", "value": 114, "unit": "%"}
    ]},
    {"smiles": "CNc1cc(-c2ccc3cc(C#N)cnn23)ncc1-c1nnc(N2CCN(C(=O)CC[C@@H]3CCN(c4ccc([C@@H]5CCC(=O)NC5=O)cn4)C3)CC2)s1", "note": "(racemic) [Example 45, 7-{5-[5-(4-{3-[(3RS)-1-{5-[(3RS&)-2,6-dioxopiperidin-3-yl]pyridin-2-yl}pyrrolidin-3-yl]propanoyl}piperazin-1-yl)-1,3,4-thiadiazol-2-yl]-4-(methylamino)pyridin-2-yl}pyrrolo[1,2-b]pyridazine-3-carbonitrile]", "values": [
      {"measurement": "DC50", "value": 13, "unit": "nM"},
      {"measurement": "Dmax", "value": 113, "unit": "%"}
    ]},
    {"smiles": "CNc1cc(-c2ccc3cc(C#N)cnn23)ncc1-c1nnc(N2CC3CCC(C2)N3C(=O)C2CCN(c3ccc([C@H]4CCC(=O)NC4=O)cn3)CC2)s1", "note": "(racemic) [Example 46, rac-7-(5-{5-[8-(1-{5-[(3R)-2,6-dioxopiperidin-3-yl]pyridin-2-yl}piperidine-4-carbonyl)-3,8-diazabicyclo[3.2.1]octan-3-yl]-1,3,4-thiadiazol-2-yl}-4-(methylamino)pyridin-2-yl)pyrrolo[1,2-b]pyridazine-3-carbonitrile]", "values": [
      {"measurement": "DC50", "value": 6, "unit": "nM"},
      {"measurement": "Dmax", "value": 111, "unit": "%"}
    ]}
  ]
}
